This note sets out measurements from patent US20040058980A1, “Useful aroyl pyrrole heteroaryl methanones and methanols” (priority 2001, published 2004).

One data set has as its system mechanical allodynia. Put plainly: Chung Model (spinal nerve ligation), mechanical allodynia with von Frey hairs. The format is in vivo. The conditions noted are these: rat; for Chung Model result in words (IA) / % MPE (Maximum Possible Effect) in the Chung Model: oral, screening dose (not given); for ED50 in the Chung Model: orally administered. More on the design: key to Chung Model result in words (IA): IA: inactive at the screening dose. The source says: Procedure for Testing Antiallodynic Effect
The procedure used to detect the antiallodynic effect of a compound of the present invention for which there is a good correlation with human efficacy for the treatment of pain is the procedure for the measurement of allodynia found in the Chung Model (Kim S. H. and Chung J. M., An Experimental Model for Peripheral Neuropathy Produced by Segmental Spinal Nerve Ligation in the Rat, Pain, 1992, 50, 355-363). The antiallodynic effect of the composition of the present invention in the Chung Model is expressed in % MPE (Maximum Possible Effect).
Male Sprague-Dawley rats, weighing approximately 200 g each were anesthetized with isoflurane. The spinal nerve at the level of L5 was exposed through an incision just left of the dorsal midline and tightly ligated with 6-0 silk. At various times after surgery, animals were tested for mechanical allodynia with von Frey hairs (monofilaments which are calibrated to bend under a certain amount of pressure, ranging from 0.41 to 15.1 g). In order to calculate a paw withdrawal threshold (PWT), tactile allodynia was measured by recording the pressure at which the affected paw was withdrawn from graded stimuli according to the procedure of S. R. Chaplan, J. W. Pogrel, T. L. Yaksh, Role of Voltage-Dependent Calcium Channel Subtypes in Experimental Tactile Allodynia, J. Pharmacol. Exp. Ther., 1994, 269, 1117-1123. Normal rats can withstand at least 15 g of pressure without responding. Operated rats, however, can respond to as little as 0.25 g of pressure. The surgery was deemed successful if the animal responded with a PWT of less than 4 g of pressure applied to the affected paw. […] The PWT was used to calculate the % maximal possible effect (% MPE) according to the formula:
% MPE=100×[(PWT−CT)/(CO−CT)];
wherein PWT is defined as Paw Withdrawal Threshold, CT is Control Threshold, and CO is Cut Off (defined as 15 g).
The sham operation consisted of a similar surgery; the spinal nerve was visualized without being ligated.
Compounds selected from Formula (I) and Formula (II) were tested for activity in treating or modulating neuropathic pain by being dissolved or suspended in either water or hydroxypropyl methylcellulose, respectively. […] were fasted overnight prior to dosing. Animals were orally dosed and dosage volumes were calculated on a 4 mL/kg basis.

Data set [1] deals with voltage-gated sodium channels. Kind of data set: [14C]guanidinium flux assay, veratridine-stimulated SK-N-SH cells. Format: cell-based. To be noted: 100 μM compound, 100 μM veratridine. How it is done: Screening Assay for Voltage-Gated Sodium Channel Antagonists
[^14C] Guanidinium Flux Assay
SK-N-SH neuroblastoma cells were maintained in a propagation medium containing modified Eagle's medium and 10% (v/v) fetal bovine serum and were incubated at 37° C. in a 5% CO2 atmosphere. Only cells with fewer than 20 passages were used in each assay. All drugs were prepared in DMSO, and the final concentration of solvent was less than 0.1% (v/v). Veratridine, a toxin that selectively promotes persistent activation of voltage-gated sodium channels, served as the stimulus.
SK-N—SH cells were plated at 1×10^5 cells/well in 96-well Cytostar-T microscintillating plates in propagation medium and experiments were performed 6-7 days after plating. Prior to assay, the SK-N-SH cells were washed twice with assay buffer containing 50 mM HEPES (pH 7.45), 5.4 mM potassium chloride, 0.8 mM magnesium chloride, 130 mM choline chloride, 5.5 mM glucose and 0.1 mg/mL bovine serum albumin. Next, the plates were allowed to equilibrate for 10 min at 37° C. in assay buffer. […] The 96-well dosing plate was prepared by mixing 25 μL of a drug/assay buffer solution per well with 25 μL of 0.7 μCi/mL [^14C]guanidine hydrochloride in assay buffer. […] The plates were incubated for 1 hr at room temperature and the radioactivity was counted in a 1450 Microbeta scintillation counter. […]

For the next data set, the system named is toxic extensor seizure. Kind of data set: Mouse maximal electroshock test (MES), anticonvulsant model. Format: in vivo. To be noted: for MES Response, number of mice protected/number of mice tested: oral, 300 mpk. As to the method:
Procedure for Testing in Mouse Anticonvulsant Model
The activity of the present compounds as anticonvulsant agents was determined using a standard mouse “maximal electroshock test” (MES). In this test, activity was indicated by a block of the […] extensor seizure, as described by Swinyard, et al. (J. Pharmacol. Exptl. Therap., 1952, 106, 319). A more recent description of current anticonvulsant drug screening is given in Swinyard, et al., in Epilepsia, 1978, 19, 409.
The anticonvulsant activity of the instant compounds is shown in Table 5 and was evaluated according to the Swinyard (1952) method. The abbreviations used in the table have the following meanings: mpk refers to the dose orally administered in “mg per Kg;” and, ED50 refers to the “50% Effective Dose” orally administered in mpk. The values marked by an * represent the number of mice protected/number of mice tested; therefore, a value of 3/3 represents that the number of mice protected matched the number of mice tested at the indicated dose.
(The maximal electroshock test induces tonic seizures with an electrical stimulus.)

The structures appear in SMILES notation. Structures can show the parent of a compound that is named as a salt. Marks after values point to notes of the source that are not given here.

By melting point is commonly meant the temperature of the solid-liquid transition. Consider `Cn1cc(C(=O)c2ccccn2)cc1C(=O)c1ccc(Cl)cc1` [Cpd 6, [5-(4-Chlorobenzoyl)-1-methyl-1H-pyrrol-3-yl]pyridin-2-yl-methanone], for which the melting point was in the range of 138 to 139 °C.
On to `Cc1c(C(O)c2ccncc2)c(C)n(C)c1C(=O)c1ccc(Cl)cc1` (stereo not drawn) (as salt: hydrochloride) [Cpd 18, (4-Chlorophenyl)-[4-(hydroxypyridin-4-yl-methyl)-1,3,5-trimethyl-1H-pyrrol-2-yl]methanone], for which the melting point was 174 to 176 °C.
`Cn1cc(C(=O)c2cnc[nH]2)cc1C(=O)c1ccc(Cl)cc1` [Cpd 13, (4-Chlorophenyl)-[4-(3H-imidazole-4-carbonyl)-1-methyl-1H-pyrrol-2-yl]methanone] yielded a melting point of 198 to 200 °C. In addition, the “Chung Model result in words (IA)” value in the data set with mechanical allodynia was “IA”.
For the compound `Cn1cc(C(O)c2ccncc2)cc1C(=O)c1ccc(Cl)cc1` (stereo not drawn) [Cpd 12, (4-Chlorophenyl)-[4-(hydroxypyridin-4-yl-methyl)-1-methyl-1H-pyrrol-2-yl]-methanone], the melting point fell in the range of 145 to 146 °C. In data set [1], the “% GFI (% guanidinium flux inhibition) @ 100 μM” value was 4 @ 100%.
In the case of `Cn1cc(C(=O)c2cc[n+]([O-])cc2)cc1C(=O)c1ccc(Cl)cc1` [Cpd 15, (4-Chlorophenyl)-[1-methyl-4-(1-oxypyridine-4-carbonyl)-1H-pyrrol-2-yl]methanone], the “% MPE (Maximum Possible Effect) in the Chung Model” value in the data set on mechanical allodynia was found to be 7.9%.
For the compound `Cn1cc(C(=O)c2ccncc2)cc1C(=O)c1ccccc1` [Cpd 2, (5-Benzoyl-1-methyl-1H-pyrrol-3-yl) pyridin-4-ylmethanone], the melting point fell in the range of 127 to 129 °C.
Take `Cl.Cn1cc(C(=O)c2ccncc2)cc1C(=O)c1cccs1` [Cpd 4, [1-Methyl-5-(thiophene-2-carbonyl)-1H-pyrrol-3-yl]pyridin-4-ylmethanone Hydrochloride]: the melting point is 243 to 245 °C. For the same compound, the “MES Response, number of mice protected/number of mice tested” value with toxic extensor seizure was 0/1* @ 300 mpk. For the same compound, the “Chung Model result in words (IA)” value in the data set on mechanical allodynia is on record as “IA”.
`Cn1cc(C(=O)c2ccncc2)cc1C(=O)c1ccc(Cl)cc1` [Cpd 1, [5-(4-Chlorobenzoyl)-1-methyl-1H-pyrrol-3-yl]pyridin-4-ylmethanone] came in with a melting point of 174 to 175 °C. In addition, the “MES Response ED50” value in the data set with toxic extensor seizure (orally administered) is “ED50 = 156.97 mpk”. Moreover, the “ED50 in the Chung Model” value in the data set with mechanical allodynia is on record as “ED50 = 22 mpk”.
In the case of `Cn1cc(C(=O)c2ccc(F)cc2)cc1C(=O)c1ccccn1` [Cpd 10, (4-Fluorophenyl)-[1-methyl-5-(pyridine-2-carbonyl)-1H-pyrrol-3-yl]methanone], the melting point is 159 to 161 °C. Also, the “MES Response, number of mice protected/number of mice tested” value with toxic extensor seizure is 0/1* @ 300 mpk.
For the compound `Cn1cc(C(=O)c2ccc(Cl)cc2)cc1C(=O)c1ccc(Cl)nc1` [Cpd 9, (4-Chlorophenyl)-[5-(6-chloropyridine-3-carbonyl)-1-methyl-1H-pyrrol-3-yl]methanone], the melting point fell in the range of 150 to 152 °C.
Consider `Cl.Cn1cc(C(=O)c2cccnc2)cc1C(=O)c1ccc(Cl)cc1.Cn1cc(C(=O)c2cccnc2)cc1C(=O)c1ccc(Cl)cc1.O` [Cpd 5, [5-(4-Chlorobenzoyl)-1-methyl-1H-pyrrol-3-yl]pyridin-3-ylmethanone Hydrochoride Hydrate [2:1:1]], for which, in the data set with mechanical allodynia, the “% MPE (Maximum Possible Effect) in the Chung Model” value is given as 9%.
Take `Cl.Cn1cc(C(=O)c2ccc(F)cc2)cc1C(=O)c1cccnc1` [Cpd 7, (4-Fluorophenyl)-[1-methyl-5-(pyridine-3-carbonyl)-1H-pyrrol-3-yl]methanone Hydrochloride]: the melting point fell in the range of 220 to 223 °C. In addition, in the data set with mechanical allodynia, the “ED50 in the Chung Model” value is “ED50 = 22 mpk”.
In the case of `Cn1cc(C(=O)c2ccc3ccccc3c2)cc1C(=O)c1cccnc1` [Cpd 8, [1-Methyl-5-(pyridine-3-carbonyl)-1H-pyrrol-3-yl]naphthalen-2-yl-methanone], the melting point lay in the range of 132 to 133 °C. Moreover, the “MES Response, number of mice protected/number of mice tested” value with toxic extensor seizure is reported as 0/1* @ 300 mpk.
Turning to `Cn1cc(C(=O)c2ccnc(Cl)c2)cc1C(=O)c1ccc(Cl)cc1` [Cpd 19, (4-Chlorophenyl)-[4-(2-chloropyridine-4-carbonyl)-1-methyl-1H-pyrrol-2-yl]methanone], the melting point fell in the range of 182 to 184 °C.
Still for that read-out and setting: under `Cc1c(C(=O)c2ccc(F)cc2)c(C)n(C)c1C(=O)c1cccnc1` [Cpd 17, (4-Fluorophenyl)-[1,2,4-trimethyl-5-(pyridine-3-carbonyl)-1H-pyrrol-3-yl]methanone] stands 85 to 88 °C; under `Cc1ccc(C(=O)c2cc(C(=O)c3ccncc3)cn2C)cc1.Cl` [Cpd 3, [1-Methyl-5-(4-methyl benzoyl)-1H-pyrrol-3-yl]pyridin-4-ylmethanone Hydrochloride], 134 to 136 °C.
On to `Cn1cc(C(=O)c2ccc(F)cc2)cc1C(=O)c1ccncc1` [Cpd 11, (4-Fluorophenyl)-[1-methyl-5-(pyridine-4-carbonyl)-1H-pyrrol-3-yl]methanone], for which the melting point fell in the range of 155 to 157 °C. The “MES Response, number of mice protected/number of mice tested” value in the data set on toxic extensor seizure is on record as 0/1* @ 300 mpk.
